Data published in patent US12584916B2, “Method for measuring the modulation of the activation of a G protein-coupled receptor with GTP analogues” (CISBIO BIOASSAYS, priority 2019, dated 2026).

B1: DSV36S: anti-G-alphai antibody of Cisbio Bioassays, VH SEQ ID NO: 15 and VL SEQ ID NO: 16; used labeled with d2 or Lumi4Tb (antibody, V domains shown)
VH: EVQLQQSGAELVRPGALVKLSCKASGFNIKDYYMHWVKQRPEQGLEWIGWIDPENGNTIYDPKFQGKASITADTSSNTAYLQLSSLTSEDTAVYYCTRGGGYYSDWYFDVWGAGTTVTVSS
VL: QIVLTQSPAIMSASPGEKVTMTCSASSSVSYMHWYQQKSGTSPKRWIYDTSKLASGVPARFSGSGSGTSYSLTISSMEAEDAATYYCQQWSSNPPITFGAGTKLELK
modifications: d2 or Lumi4Tb label; Heavy chain variable domain (VH); Light chain variable domain (VL)

How the values were obtained:
[1] = biological target: T1, Delta Opioid GPCR (Homo sapiens, UniProt P41143); experiment: Activation test according to format 2A on Delta Opioid GPCR (antagonist mode); format: biochemical; conditions: Example 15; SNC162 200 nM fixed; increasing antagonist concentration; GTPgN-octyl-C2 6 nM + DSV36S-d2 10 nM; CHO-DOR membranes; NaCl 300 mM; GDP 0.5 μM
T1 construct: purchased Perkin Elmer or Euroscreen
Experimental: All the reagents were diluted in TrisHCl buffer 50 mM pH 7.4, MgCl2 10 mM, BSA 0.1%, NaCl 10 mM or 100 mM or 300 mM or 500 mM (concentration specified in the legend of each figure), 0 or 0.5 or 1 μM GDP (concentration specified in the legend of each figure). The membranes were prepared 4× for distributing 1 or 10 μg/well (amount specified in the legend of each figure). The nucleotide GTPgS (nonspecific signal condition) was prepared 6.67× to obtain a final concentration in the wells of 100 μM. The test compounds (agonists or antagonists) were prepared 10× to obtain the final concentrations in the wells mentioned in the diagrams. […]
• Membranes expressing the GPCR and the G protein: 5 μL • Buffer or GTPgS nucleotide (for the nonspecific signal condition): 3 μL • Nonhydrolyzable/slowly hydrolyzable GTP analogue—donor or acceptor: 5 μL • anti G-alphai-donor or acceptor ligand: 5 μL • Buffer or test compounds (agonists and/or antagonists): 2 μL. The nonspecific signal (fluorescence background noise) was measured with wells containing an excess of GTPgS (100 μM). Reading the HTRF Signal […]
From the raw signals at 665 nm (for red acceptor—Cy5) or 520 nm (for green acceptors—AF488 or Fluorescein) and 620 nm, the HTRF Ratio was calculated from the following formula: HTRF Ratio=Signal at 665 nm or Signal at 520 nm/Signal at 620 nm*10.000. […]

[2] = biological target: switch II domain of the alphai G-protein (Homo sapiens, UniProt P63096); experiment: Binding site of the anti-G-alphai antibodies
Sequence of switch II domain of the alphai G-protein (P63096 whole entry, the tested form may be a part): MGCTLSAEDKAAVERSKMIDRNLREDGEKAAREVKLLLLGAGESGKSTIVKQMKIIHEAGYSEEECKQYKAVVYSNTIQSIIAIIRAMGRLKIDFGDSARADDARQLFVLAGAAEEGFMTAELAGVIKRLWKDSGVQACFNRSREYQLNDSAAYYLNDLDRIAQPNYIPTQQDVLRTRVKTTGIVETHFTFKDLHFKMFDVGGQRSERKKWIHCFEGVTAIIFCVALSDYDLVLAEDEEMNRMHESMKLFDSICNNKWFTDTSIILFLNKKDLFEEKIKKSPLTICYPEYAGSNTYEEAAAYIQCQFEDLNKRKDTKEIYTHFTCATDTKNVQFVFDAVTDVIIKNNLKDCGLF

T1 sequence (P41143 whole entry): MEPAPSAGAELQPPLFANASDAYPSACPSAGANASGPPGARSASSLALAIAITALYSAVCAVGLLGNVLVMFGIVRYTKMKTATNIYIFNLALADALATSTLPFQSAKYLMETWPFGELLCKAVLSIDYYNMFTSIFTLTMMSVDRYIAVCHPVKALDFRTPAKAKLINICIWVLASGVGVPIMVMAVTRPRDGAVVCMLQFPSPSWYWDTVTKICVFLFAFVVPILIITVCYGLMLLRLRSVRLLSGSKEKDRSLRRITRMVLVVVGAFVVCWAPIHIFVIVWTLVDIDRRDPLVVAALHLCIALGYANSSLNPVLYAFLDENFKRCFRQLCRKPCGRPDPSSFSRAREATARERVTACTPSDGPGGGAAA

Molecule	inhibition of activation by agonist SNC162 (decrease in the TR-FRET signal, HTRF Ratio) [1]	binding site on the alphai G-protein [2]
Oc1ccc2c3c1O[C@H]1c4[nH]c5ccccc5c4C[C@@]4(O)[C@@H](C2)N(CC2CC2)CC[C@]314 [Naltrindole]	inhibited	
B1		bind at the level of the switch II domain of the alphai G-protein
